This note sets out measurements from patent publication US20230339922A1, “COVALENT EGFR INHIBITORS AND METHODS OF USE THEREOF” (DANA-FARBER CANCER INSTITUTE, INC., priority 2020, published 2023).

For assay [1], the system named is EGFR mutant L858R Ba/F3 cells. The assay is described as follows: Ba/F3 cell proliferation (Cell Titer Glo), EGFR L858R. Format: cell-based, murine. The note with it: Mus musculus, BaF3, Ba/F3 cells with EGFR L858R, 72 hours exposure, read-out: L BaF3. An excerpt: (§1) The EGFR mutant L858R Ba/F3 cells have been previously described (Zhou, W., et al. Nature 462, 2009, 1070-1074). The EGFR C797S and C775S mutations were introduced via site directed mutagenesis using the Quick Change Site-Directed Mutagenesis kit into a vector containing EGFR […] mutation (Stratagene; La Jolla, CA) according to the manufacturer’s instructions. All constructs were confirmed by DNA sequencing. The constructs were then shuttled into the retroviral vector JP1540 by either using the Cre-recombination system (Agilent Technologies, Santa Clara, CA) or the In-fusion HD Cloning kit (Takara Bio USA, Inc.; Mountain view, CA). Ba/F3 cells were then infected with retrovirus per standard protocols, as described previously (Zhou, et al, Nature 2009). […]
(§2) Growth and inhibition of growth was assessed by the Cell Titer Glo assay (Promega, Madison, WI) and was performed according to the manufacturer’s instructions. The Cell Titer Glo assay is a luminescence-based method used to determine the number of viable cells based on quantitation of the ATP present, which is directly proportional to the amount of metabolically active cells present. Ba/F3 cells of different EGFR genotypes were exposed to compounds for 72 hours and the number of cells used per experiment was determined empirically as has been previously established (Zhou, et al., Nature 2009). […]
Background: In ATP-based viability assays light output follows the ATP content of the culture.

The test system of assay [2] is EGFR L858R/C797S Ba/F3 cells. The assay is described as follows: Ba/F3 cell proliferation (Cell Titer Glo), EGFR L858R/C797S. Type of assay: cell-based, murine. Particulars: Mus musculus, BaF3, Ba/F3 cells with EGFR L858R/C797S, 72 hours exposure, read-out: L/C797S.
Text: as §1, §2

With `C=CC(=O)Nc1cc(C(=O)Nc2nc3cccc(C)c3n2[C@@H]2CCCCN(C(=O)C=C)C2)cs1` [compound 001], the EC50 in assay [1] was 6 nM; in assay [2] it was 334 nM.
